# Organism: Rattus norvegicus
# Assay: Open TG-GATES - Regimen: Daily Repeat
# Type: toxicity, organism-based, Sprague-Dawley
# Set-up: regimen Daily Repeat, gender Male, age 6 weeks
# Conditions: in vivo, po, route gavage; for gamma-GTP / ALP / ALT / AST / BUN / CRE / Ca / DBIL / GLC / IP / K / LDH / Na / PL / RALB / TBIL / TC / TG / TP: tissue Plasma; for APTT / Bas / Eos / Fbg / Hb / Ht / Lym / MCH / MCHC / MCV / Mono / Neu / PT / Plat / RBC / Ret / WBC: tissue Blood; for KIDNEY_L / KIDNEY_R / KIDNEY_TOTAL: tissue Kidney; for LIVER: tissue Liver
# [1] = 30 mg/kg, 72 h, dose level Middle, time 3 day
# [2] = 30 mg/kg, […], dose level Middle, time 7 day
# [3] = 30 mg/kg, […], dose level Middle, time 14 day
# [4] = 30 mg/kg, […], dose level Middle, time 28 day
compound,measurement,setting,value
CSc1ccc2c(c1)N(CCC1CCCCN1C)c1ccccc1S2 (stereo not drawn) [THIORIDAZINE],gamma-GTP,"10 mg/kg, […], dose level Low, time 28 day",1.4 IU/L
same,TERMINAL_BW,[1],234.2 g
same,APTT,[1],15.8 s
same,Bas,[1],0%
same,Eos,[1],1%
same,Fbg,[1],219.8 mg/dL
same,Hb,[1],14.1 g/dL
same,Ht,[1],42.2%
same,Lym,[1],79.6%
same,MCH,[1],21.7 pg
same,MCHC,[1],33.4%
same,MCV,[1],64.9 fL
same,Mono,[1],7%
same,Neu,[1],12.6%
same,PT,[1],11.9 s
same,Plat,[1],110.7 x10_4/uL
same,RBC,[1],651 x10_4/ul
same,Ret,[1],8%
same,WBC,[1],122.3 x10_2/uL
same,KIDNEY_L,[1],1 g
same,KIDNEY_R,[1],1.1 g
same,KIDNEY_TOTAL,[1],2.1 g
same,LIVER,[1],12.3 g
same,ALP,[1],1002.8 IU/L
same,ALT,[1],44 IU/L
same,AST,[1],66.2 IU/L
same,BUN,[1],19 mg/dL
same,CRE,[1],0.5 mg/dL
same,Ca,[1],11.3 mg/dL
same,DBIL,[1],0.012 mg/dL
same,GLC,[1],188 mg/dL
same,IP,[1],9.3 mg/dL
same,K,[1],4.9 meq/L
same,LDH,[1],88.6 IU/L
same,Na,[1],139 meq/L
same,PL,[1],176.2 mg/dL
same,RALB,[1],4.1 g/dL
same,TBIL,[1],0.3 mg/dL
same,TC,[1],92 mg/dL
same,TG,[1],105.6 mg/dL
same,TP,[1],6 g/dL
same,gamma-GTP,[1],1.6 IU/L
same,TERMINAL_BW,[2],271.1 g
same,TERMINAL_BW,[3],301.4 g
same,TERMINAL_BW,[4],394 g
same,APTT,[2],15.4 s
same,Bas,[2],0%
same,Eos,[2],0.6%
same,Fbg,[2],235.6 mg/dL
same,Hb,[2],14.9 g/dL
same,Ht,[2],44.8%
same,Lym,[2],82.4%
same,MCH,[2],21.1 pg
same,MCHC,[2],33.2%
same,MCV,[2],63.6 fL
same,Mono,[2],5.8%
same,Neu,[2],11%
same,PT,[2],11.9 s
same,RBC,[2],705.6 x10_4/ul
same,Ret,[2],5.7%
same,WBC,[2],139.8 x10_2/uL
same,APTT,[3],16.2 s
same,Bas,[3],0%
same,Eos,[3],1%
same,Fbg,[3],224.8 mg/dL
same,Hb,[3],14.5 g/dL
same,Ht,[3],41%
same,Lym,[3],76.8%
same,MCH,[3],22.1 pg
same,MCHC,[3],37.1%
same,MCV,[3],59.7 fL
same,Mono,[3],8.4%
same,Neu,[3],14.4%
same,PT,[3],11.6 s
same,Plat,[3],101.3 x10_4/uL
same,RBC,[3],685.8 x10_4/ul
same,Ret,[3],3.8%
same,WBC,[3],148.2 x10_2/uL
same,APTT,[4],18 s
same,Bas,[4],0%
same,Eos,[4],1%
same,Fbg,[4],237.2 mg/dL
same,Hb,[4],15.5 g/dL
same,Ht,[4],46.8%
same,Lym,[4],83%
same,MCH,[4],19.6 pg
same,MCHC,[4],33.3%
same,MCV,[4],58.9 fL
same,Mono,[4],5.8%
same,PT,[4],11.9 s
same,Plat,[4],106.6 x10_4/uL
same,RBC,[4],795.4 x10_4/ul
same,Ret,[4],5.4%
same,WBC,[4],161 x10_2/uL
same,KIDNEY_L,[2],1.2 g
same,KIDNEY_R,[2],1.2 g
same,KIDNEY_TOTAL,[2],2.3 g
same,KIDNEY_L,[3],1.3 g
same,KIDNEY_R,[3],1.3 g
same,KIDNEY_TOTAL,[3],2.5 g
same,KIDNEY_L,[4],1.4 g
same,KIDNEY_R,[4],1.5 g
same,KIDNEY_TOTAL,[4],2.9 g
same,LIVER,[2],13.7 g
same,LIVER,[3],14 g
same,LIVER,[4],17.9 g
same,ALP,[2],818.4 IU/L
same,ALT,[2],37.4 IU/L
same,AST,[2],64.2 IU/L
same,BUN,[2],17.8 mg/dL
same,CRE,[2],0.5 mg/dL
same,Ca,[2],11.3 mg/dL
same,DBIL,[2],0.008 mg/dL
same,GLC,[2],183.8 mg/dL
same,IP,[2],8.6 mg/dL
same,K,[2],4.8 meq/L
same,LDH,[2],84.8 IU/L
same,Na,[2],138.6 meq/L
same,PL,[2],174 mg/dL
same,RALB,[2],4.1 g/dL
same,TBIL,[2],0.3 mg/dL
same,TC,[2],88.4 mg/dL
same,TG,[2],124.8 mg/dL
same,TP,[2],6.1 g/dL
same,gamma-GTP,[2],1.8 IU/L
same,ALP,[3],731.4 IU/L
same,ALT,[3],34.6 IU/L
same,AST,[3],65.8 IU/L
same,BUN,[3],16.4 mg/dL
same,CRE,[3],0.5 mg/dL
same,Ca,[3],10.5 mg/dL
same,DBIL,[3],0.02 mg/dL
same,GLC,[3],179.2 mg/dL
same,IP,[3],7.9 mg/dL
same,K,[3],4.8 meq/L
same,LDH,[3],103.2 IU/L
same,Na,[3],139.4 meq/L
same,PL,[3],159.4 mg/dL
same,RALB,[3],4.1 g/dL
same,TBIL,[3],0.3 mg/dL
same,TC,[3],77.6 mg/dL
same,TG,[3],139.8 mg/dL
same,TP,[3],6.2 g/dL
same,gamma-GTP,[3],1 IU/L
same,ALP,[4],625.2 IU/L
same,ALT,[4],39.8 IU/L
same,AST,[4],66.2 IU/L
same,BUN,[4],20.2 mg/dL
same,CRE,[4],0.6 mg/dL
same,Ca,[4],11 mg/dL
same,DBIL,[4],0.002 mg/dL
same,GLC,[4],183.2 mg/dL
same,IP,[4],7.3 mg/dL
same,K,[4],4.2 meq/L
same,LDH,[4],152.2 IU/L
same,Na,[4],140.2 meq/L
same,PL,[4],159.4 mg/dL
same,RALB,[4],4.2 g/dL
same,TBIL,[4],0.3 mg/dL
same,TC,[4],77.4 mg/dL
same,TG,[4],122.6 mg/dL
same,TP,[4],6.4 g/dL
same,gamma-GTP,[4],1.6 IU/L

# — ChEMBL document CHEMBL3885861, “Open TG-GATES”
